We go through five compounds from US7135473B2, “Cyclic diamine compound with condensed-ring groups” (Kowa Co., Ltd., priority 2001, dated 2006).

Experiment [1] deals with U937 cells adhered to HUVEC stimulated by TNFα. As to the kind of experiment: Inhibitory effect on cell adhesion, stimulation by TNFα. It is filed as cell-based. As to conditions: Homo sapiens, compound at 1 μM, read-out: Inhibitory activity against cell adhesion, Percent inhibition (%), Stimulation by TNFα. The protocol:
(§1) This test was conducted by reference to the method of Ross et al. (J. Biol. Chem., 267, 8537–8543(1992). More specifically, after human umbilical venous endothelial cells (HUVEC) were cultured on a 48-well plate to confluent growth, IL-1β or TNFα was added thereto. After culturing for 5 hours, U937, which is a human monocytic/histocytic cell fluorescence-labeled with PKH2(product of Dainippon Pharmaceutical Co., Ltd.), was added in a proportion of 1×10^6 cells per well. After the plate was left at rest at room temperature for 1 hour, unadhered U937 was washed out and lysed in 1% Triton X-100 to measure a remaining fluorescence intensity (excitation wavelength: 480 nm; measuring wavelength: 530 nm). HUVEC and U937 were cultured in EGM-2 (product of Sanko Junyaku K. K.) and 10% FCS-containing RPMI1640, respectively. Each test agent was added to HUVEC upon the addition of IL-1β or TNFα and to U937 24 hours prior to the cell adhesion test. The inhibitory activity was calculated out according to the equation [100−(C−B)/(A−B)×100(%)], wherein A is the number of U937 cells adhered to HUVEC stimulated by IL-1β or TNFα when no test agent was added, B is the number of U937 cells adhered to HUVEC not stimulated by IL-1β or TNFα when no test agent was added, and C is the number of U937 cells adhered to HUVEC stimulated by IL-1β or TNFα when the test agent was added. As control compounds, Test Compound 1 described in Japanese Patent Application Laid-Open No. 9–143075 and dilazep described in Japanese Patent Application Laid-Open No. 11–92382 were simultaneously evaluated.

In experiment [2] the test system is U937 cells adhered to HUVEC stimulated by IL-1β. As to the kind of experiment: Inhibitory effect on cell adhesion, stimulation by IL-1β. It is filed as cell-based. Particulars: Homo sapiens, compound at 1 μM, read-out: Inhibitory activity against cell adhesion, Percent inhibition (%), Stimulation by IL-1β. The protocol: as §1

For `COc1cc(C(=O)OCCCN2CCCN(CCCOC(=O)c3cc(OC)c(OC)c(OC)c3)CC2)cc(OC)c1OC` [Dilazep, dilazep, reference compound], the inhibition at 1 µM in experiment [1] came out at 12%; in experiment [2], 0%.

For the compound `COc1cc2cc(CCN3CCCN(CCc4ccc5c(OC)c(OC)c(OC)cc5c4)CC3)ccc2c(OC)c1OC` [Example 6, N,N′-bis[2-(5,6,7-trimethoxynaphthalen-2-yl)ethyl]homopiperazine], the inhibition at 1 µM stood at 69% in experiment [1] and 57% in experiment [2].

`COc1cc2nc(CN3CCN(Cc4nc5cc(OC)c(OC)c(OC)c5s4)CC3)sc2c(OC)c1OC` [Example 32, N,N′-bis[(5,6,7-trimethoxybenzothiazol-2-yl)methyl]piperazine]: the figures for the inhibition at 1 µM in experiment [1] and in experiment [2] were 52% and 54%, respectively.

On to `COc1cc2nc(CN3CCCN(Cc4nc5cc(OC)c(OC)c(OC)c5s4)CC3)sc2c(OC)c1OC` [Example 33, N,N′-bis[(5,6,7-trimethoxybenzothiazol-2-yl)methyl]homopiperazine], for which the results for the inhibition at 1 µM in experiment [1] and in experiment [2] were 79% and 64%, respectively.

`COc1cc2sc(CN3CCCN(Cc4cc5c(OC)c(OC)c(OC)cc5s4)CC3)cc2c(OC)c1OC` [Example 41, N,N′-bis[(4,5,6-trimethoxybenzothiophen-2-yl)methyl]homopiperazine]: the inhibition at 1 µM in experiment [1] came to 27%; in experiment [2], 52%.
